Earlier results, collected in US5766627A, “Multivescular liposomes with controlled release of encapsulated biologically active substances” (priority 1997, dated 1998).

Experiments:
[1] = test system: strains of gram negative bacteria; details: clinical, background statement
[2] = free amikacin, background statement
[3] = test system: strains of gram positive bacteria; details: clinical, background statement

SMILES: NCC[C@H](O)C(=O)N[C@@H]1C[C@H](N)[C@@H](O[C@H]2O[C@H](CN)[C@@H](O)[C@H](O)[C@H]2O)[C@H](O)[C@H]1O[C@H]1O[C@H](CO)[C@@H](O)[C@H](N)[C@H]1O [amikacin]
- activity against gram negative bacteria [1]: clinically significant activity
- serum half-life [2]: two to three
- activity against gram positive bacteria [3]: clinically significant activity
